# Where two headings read alike, the source gives them in different places.
# Key:
# Rat pharmacokinetics = type: in vivo, Sprague-Dawley rats; details: for Vd / clearance / half-life / AUCN, i.v. dosing @ 1 mpk: iv, 1 mg/kg; for AUCN, p.o. dosing @ 2 mpk: po, 2 mg/kg
# Procedure: As exemplified in Table 7, the in vivo pharmacokinetic profiles for Examples 1 and 3 and the comparator Compound #290 were determined in the rat at the standard screening doses of 1 mpk i.v. and 2 mpk p.o. (Note 10).
# Compounds were formulated as their mono-L-malic acid salts at 1 mg/mL in PEG-200:water 70:30 (v:v) and administered to Sprague-Dawley rats (n=2 for i.v. and n=3 for p.o. arms) at a dose of 1 mg/kg i.v. or 2 mgk p.o. (free base equivalent). Blood samples were taken at 0.03, 0.08, 0.25, 0.50, 1, 2, 4, 6, 8 and 24 hours for the i.v. arm and at 0.25, 0.50, 1, 2, 4, 6, 8 and 24 hours for the p.o. arm. The plasma concentrations of test compound at each time point were determined by protein precipitation with acetonitrile followed by liquid chromatography—tandem mass spectrometry versus a standard curve. The PK parameters were calculated using validated techniques known in the literature (see Stedman's Medical Dictionary, 23rd ed.).
# CYP-P450 2D6 = molecular target: T1, CYP-P450 2D6 (Homo sapiens, UniProt P10635); assay: CYP-P450 reversible inhibition, 2D6; type: in vitro ADME; details: human liver microsomes or recombinant P450 microsomes; fluorescent probe
# T1 construct: host or cells: human liver microsomes or recombinant P450 microsomes
# T1 sequence (P10635 whole entry): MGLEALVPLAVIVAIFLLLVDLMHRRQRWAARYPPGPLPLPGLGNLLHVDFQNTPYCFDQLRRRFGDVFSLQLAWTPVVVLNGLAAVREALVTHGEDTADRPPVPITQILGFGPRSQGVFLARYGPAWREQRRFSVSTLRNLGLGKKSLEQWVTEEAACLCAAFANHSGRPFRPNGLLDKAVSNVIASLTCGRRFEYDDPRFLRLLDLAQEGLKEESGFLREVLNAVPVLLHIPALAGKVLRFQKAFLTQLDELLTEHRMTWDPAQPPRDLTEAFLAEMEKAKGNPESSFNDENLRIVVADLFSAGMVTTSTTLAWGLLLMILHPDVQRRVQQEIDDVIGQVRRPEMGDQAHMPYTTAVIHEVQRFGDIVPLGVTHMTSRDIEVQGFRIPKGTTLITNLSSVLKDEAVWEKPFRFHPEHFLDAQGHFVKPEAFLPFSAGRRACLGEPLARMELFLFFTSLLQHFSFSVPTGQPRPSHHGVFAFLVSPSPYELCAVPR
# Procedure: (§1) This assay measured the reversible inhibition of the test compounds against three cytochrome P450 isozymes (CYP-P450 3A4, 2C9 and 2D6) in an automated screening formate. […] Cumene hydroperoxide, NADPH or NADPH regenerating systems can be used as electron donors for the P450 catalytic cycle. Control incubations containing no inhibitor or no fluorescent probe were performed to evaluate the 100% and 0% activities, respectively. The activity of P450 enzyme was evaluated in the presence of 0.137, 0.273, 0.547, 1.094, 2.188, 4.375, 8.750, 17.5, 35.0 and 70.0 μM concentrations of the test compounds. Inhibition curves were generated and IC50 values were calculated for each tested compound using standard techniques.
# CYP-P450 2C9 = molecular target: T2, CYP-P450 2C9 (Homo sapiens, UniProt P11712); assay: CYP-P450 reversible inhibition, 2C9; type: in vitro ADME; details: human liver microsomes or recombinant P450 microsomes; fluorescent probe
# T2 construct: host or cells: human liver microsomes or recombinant P450 microsomes
# T2 sequence (P11712 whole entry): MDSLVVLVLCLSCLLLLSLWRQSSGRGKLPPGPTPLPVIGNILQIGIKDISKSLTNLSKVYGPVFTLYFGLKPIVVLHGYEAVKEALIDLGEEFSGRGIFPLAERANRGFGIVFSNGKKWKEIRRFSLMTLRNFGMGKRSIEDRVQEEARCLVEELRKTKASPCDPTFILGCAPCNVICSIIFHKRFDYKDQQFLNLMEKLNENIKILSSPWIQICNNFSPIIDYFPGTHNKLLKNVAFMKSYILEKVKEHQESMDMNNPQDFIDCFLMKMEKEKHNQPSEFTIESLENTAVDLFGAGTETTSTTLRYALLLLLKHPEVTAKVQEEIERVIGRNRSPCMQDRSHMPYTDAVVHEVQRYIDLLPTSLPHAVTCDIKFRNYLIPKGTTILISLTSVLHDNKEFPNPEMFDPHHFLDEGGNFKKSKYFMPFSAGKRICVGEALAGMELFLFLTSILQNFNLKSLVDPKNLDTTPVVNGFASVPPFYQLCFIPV
# Procedure: as §1
# human CYP-3A4 enzyme = assay: P450 CYP-3A4 induction; type: in vitro ADME; details: test compound 10 μM vs Rifampicin 10 μM (defined as 100%)
# Procedure: This assay measured the in vitro induction of the human CYP-3A4 enzyme in the presence of 0.37, 1.11, 3.33, 10 and 30 μM test compound in an automated formate. The results are expressed as the relative percent induction measured for test compound at the 10 μM concentration compared to the known inducer standard Rifampicin at 10 μM (defined as 100%). (See Durocher, et. al., Anal. Biochem. 2000, 284, 316 for details of the assay).
# CYP-P450 3A4 = molecular target: T3, CYP-P450 3A4 (Homo sapiens, UniProt P08684); assay: CYP-P450 reversible inhibition, 3A4; type: in vitro ADME; details: human liver microsomes or recombinant P450 microsomes; fluorescent probe
# T3 construct: host or cells: human liver microsomes or recombinant P450 microsomes
# T3 sequence (P08684 whole entry): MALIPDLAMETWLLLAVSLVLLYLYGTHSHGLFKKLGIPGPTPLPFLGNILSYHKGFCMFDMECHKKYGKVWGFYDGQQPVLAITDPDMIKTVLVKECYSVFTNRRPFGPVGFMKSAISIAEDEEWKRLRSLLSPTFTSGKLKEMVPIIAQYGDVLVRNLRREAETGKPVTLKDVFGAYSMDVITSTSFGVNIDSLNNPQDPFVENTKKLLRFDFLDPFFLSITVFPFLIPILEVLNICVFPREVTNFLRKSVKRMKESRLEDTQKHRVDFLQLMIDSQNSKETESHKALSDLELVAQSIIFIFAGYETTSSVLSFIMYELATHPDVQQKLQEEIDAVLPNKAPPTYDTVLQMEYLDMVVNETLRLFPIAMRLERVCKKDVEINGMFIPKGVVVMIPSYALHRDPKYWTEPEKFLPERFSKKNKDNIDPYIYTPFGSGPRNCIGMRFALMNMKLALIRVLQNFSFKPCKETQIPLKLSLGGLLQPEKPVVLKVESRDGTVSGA
# Procedure: as §1
# [1] = molecular target: T4, Human Leukocyte Elastase (HLE) (Homo sapiens, UniProt P08246); assay: HLE time-dependent inactivation assay, PMN cell lysate source of HLE; type: biochemical; details: 3 nM, inhibitor 26.5 nM, substrate 1 mM
# T4 construct: The PMN lysates were prepared by isolating human neutrophils from whole blood; from tissue; host or cells: human neutrophils (PMN) isolated from whole blood, lysed by sonication in PBS
# T4 sequence (P08246 30-267): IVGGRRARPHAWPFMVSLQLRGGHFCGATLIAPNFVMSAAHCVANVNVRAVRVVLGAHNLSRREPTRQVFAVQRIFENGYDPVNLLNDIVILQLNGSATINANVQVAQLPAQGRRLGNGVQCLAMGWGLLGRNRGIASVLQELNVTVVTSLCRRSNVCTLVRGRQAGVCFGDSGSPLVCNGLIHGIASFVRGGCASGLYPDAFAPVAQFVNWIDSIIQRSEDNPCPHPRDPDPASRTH
# Procedure: As exemplified in Table 1, the Examples 1-6 of this application were determined to be potent, mechanism-based inactivators of Human Leukocyte Elastase (HLE) in two different in vitro time-dependent incubation assays. The two assays are described at the end of this Biological Data Section in Note 1. See the literature references in Note 2 for a discussion of the mechanism for this type of beta-lactam inactivation of HLE. Two sources of enzyme were used; either purified elastase or crude extracts of human polymorphonuclear leukocytes (PMN) containing elastase activity. […] For the compound of Example 1, the results were 638,000 M^−1 sec^−1 (average of n=3) and 809,000 M^−1 sec^−1 (n=4), respectively, and for Example 3, 804,000 M^−1 sec^−1 (average of n=4) and 952,000 M^−1 sec^−1 (n=5). […] Note that in this assay, head-to-head comparisons are particularly valuable.
# Note 1: Enzyme Assays for the Inhibition of Human Polymorphonuclear Leukocyte Elastase Via Hydrolysis of N-Methyoxysuccinyl-alanyl-alanyl-prolylalanine-p-nitroanilide Reagent.
# Prepare substrate by first dissolving in DMSO to 30 mg/ml (50 mM). Further dilute the substrate to 10 mM and add 25 μl to a final volume of 250 μl for a final concentration of 1 mM in the assay.
# Prepare the enzyme in TES Buffer (0.045M TES (N-tris[hydroxymethyl]methyl-2-mino-ethanesulfonic acid), 0.45 M NaCl, pH 7.5.). Two sources of enzyme were used; either crude extracts of human polymorphonuclear leukocytes (PMN) containing elastase activity or purified elastase. The PMN lysates were prepared by isolating human neutrophils from whole blood after dextran sedimentation, ficoll density separation and red blood cell lysis. The neutrophils were lysed in PBS with sonciation and the concentration of active enzyme was determined by utilizing a standard curve of purified enzyme. For the purified elastase, the enzyme was resuspended at 10 mg/ml (˜340 μM) in 0.02M NaOAc, 50% glycerol. For both the PMN lysate and purified enzyme, a further dilution of enzyme was made to 30 nM and 25 μl was added to a final volume of 250 μl. The final concentration of enzyme in the assay was 3 nM.
# The inhibitors to be tested were dissolved in DMSO at 10 mM. Directly before use, the inhibitors were further diluted into TES Buffer to 265 nM and […] was added to a final volume of 250 μl. The final concentration of inhibitor in the assay was 26.5 nM.
# In a 96-well plate (flat bottom, polystyrene) 175 μl TES Buffer, 25 μl substrate, 25 μl inhibitor and 25 μl enzyme were added. After thoroughly mixing, the plate was then read in a spectrophotometer at 410 nm for 30 minutes counting every 10 seconds. Results were expressed as Kinact/Ki which is the second order rate constant in per mole per second for inactivation of the enzyme.
Compound,"F (Rat pharmacokinetics; Sprague-Dawley, in vivo) [%]","Vd (Rat pharmacokinetics; Sprague-Dawley, in vivo) [L/kg]","clearance (Rat pharmacokinetics; Sprague-Dawley, in vivo) [mL/min/kg]","half-life (Rat pharmacokinetics; Sprague-Dawley, in vivo) [min]","AUCN, i.v. dosing @ 1 mpk (Rat pharmacokinetics; in vivo) [μMhrkg/mg]","AUCN, p.o. dosing @ 2 mpk (Rat pharmacokinetics; in vivo) [μMhrkg/mg]",IC50 (CYP-P450 2D6) [µM],IC50 (CYP-P450 2C9) [µM],CYP-3A4 Induction % of Rifampicin response @ 10 μM (human CYP-3A4 enzyme) [%],IC50 (CYP-P450 3A4) [µM],kinact/KI [1] [M⁻¹ s⁻¹],"Vd (Rat pharmacokinetics; Sprague-Dawley, in vivo, i.v. 1 mpk, mono-L-malic acid salts, read-out: VDss) [L/kg]","half-life (Rat pharmacokinetics; Sprague-Dawley, in vivo, i.v. 1 mpk, mono-L-malic acid salts, read-out: t1/2 (converted)) [min]","F (Rat pharmacokinetics; oral bioavailability, p.o. 2 mpk vs i.v. 1 mpk) [%]"
"CCC[C@@H](NC(=O)N1C(=O)C(CC)(CC)[C@@H]1Oc1ccc(C(=O)N(C)CCN(C)C)cc1)c1ccc(OC)cc1 [Compound #290, reference compound]",29,14.5,114,120,0.28,0.081,39,25,6,62,,,,
"CCC[C@@H](NC(=O)N1C(=O)C(CC)(CC)[C@@H]1Oc1ccc(C(=O)N(CC)CCN(C)C)cc1)c1ccc(OC(F)(F)F)cc1 [Example 1, 2-(S)-[4-(((2-(Dimethylamino)ethyl)ethylamino)carbonyl)phenoxy]-3,3-diethyl-N-[1-(R)-(4-(trifluoromethoxy)phenyl)butyl]-4-oxo-1-azetidinecarboxamide]",25,11,42,186,0.65,0.16,37,17,5,46,809000,,,
"CCC[C@@H](NC(=O)N1C(=O)C(CC)(CC)[C@@H]1Oc1ccc(C(=O)N(CC)CCN(C)C)cc1)c1ccc(C(F)(F)F)cc1 [Example 3, 2-(S)-[4-(((2-(Dimethylamino)ethyl)ethylamino)carbonyl)phenoxy]-3,3-diethyl-N-[1-(R)-(4-(trifluoromethyl)phenyl)butyl]-4-oxo-1-azetidinecarboxamide]",28,,113,,0.24,0.069,41,8.1,0,39,952000,29,222,28
